Key:
Experiment in all cases: Bliss excess, mean over the matrix (fraction); higher = more synergy
[1] = test system: LAMA-84 (Chronic Myelogenous Leukemia)
Summary of the method: (§1)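 After 24 hours at 37°C and 5% CO2 in 1536-well plates, cells in DMEM/F12 or RPMI plus 10% FBS received two-drug dose matrices for 72 hours. Viability came from CellTiter-Glo 2.0 luminescence and was scaled as inhibition, anchored at 0 by vehicle wells and at 1 by blank wells. Combination Emax is taken as the second-highest inhibition in the matrix, and Bliss excess as the observed combination effect less EA + EB − EA·EB, with EA and EB the single-agent effects.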

HuO-3N1 (Osteosarcoma) = test system: HuO-3N1 (Osteosarcoma)
Summary of the method: as §1

[2] = test system: Calu-6 (Non-Small Cell Lung Carcinoma)
Summary of the method: as §1

[3] = test system: RPMI-8866 (Chronic Myelogenous Leukemia)
Summary of the method: as §1

[4] = test system: NCI-H1755 (Lung Adenocarcinoma)
Summary of the method: as §1

RT4 (Bladder Carcinoma) = test system: RT4 (Bladder Carcinoma)
Summary of the method: as §1

[5] = test system: AN3-CA (Endometrial Carcinoma)
Summary of the method: as §1

786-0 (Kidney Carcinoma) = test system: 786-0 (Kidney Carcinoma)
Summary of the method: as §1

[6] = test system: SJRH30 (Rhabdomyosarcoma)
Summary of the method: as §1

[7] = test system: SK-MM-2 (Plasma Cell Myeloma)
Summary of the method: as §1

[8] = test system: FLO-1 (Esophageal Adenocarcinoma)
Summary of the method: as §1

[9] = test system: NCI-H196 (Small Cell Lung Carcinoma)
Summary of the method: as §1

[10] = test system: PANC-02-03 (Pancreatic Carcinoma)
Summary of the method: as §1

[11] = test system: NCI-H1563 (Lung Adenocarcinoma)
Summary of the method: as §1

[12] = test system: SNU-175 (Colorectal Carcinoma)
Summary of the method: as §1

[13] = test system: HTC-C3 (Thyroid Gland Carcinoma)
Summary of the method: as §1

[14] = test system: CML-T1 (Chronic Myelogenous Leukemia)
Summary of the method: as §1

[15] = test system: EB-3 (Burkitt's Lymphoma)
Summary of the method: as §1

ES-2 (Ovarian Carcinoma) = test system: ES-2 (Ovarian Carcinoma)
Summary of the method: as §1

SMILES | Bliss excess [1] | Bliss excess (HuO-3N1 (Osteosarcoma)) | Bliss excess [2] | Bliss excess [3] | Bliss excess [4] | Bliss excess (RT4 (Bladder Carcinoma)) | Bliss excess [5] | Bliss excess (786-0 (Kidney Carcinoma)) | Bliss excess [6] | Bliss excess [7] | Bliss excess [8] | Bliss excess [9] | Bliss excess [10] | Bliss excess [11] | Bliss excess [12] | Bliss excess [13] | Bliss excess [14] | Bliss excess [15] | Bliss excess (ES-2 (Ovarian Carcinoma))
NC1(C(=O)N[C@@H](CCO)c2ccc(Cl)cc2)CCN(c2ncnc3[nH]ccc23)CC1 [Capivasertib] + Cn1cnc2c(F)c(Nc3ccc(Br)cc3Cl)c(C(=O)NOCCO)cc21 [Selumetinib] (first compound max 10 µM, 7x7, partner max 10 µM) | 0.0548 | -0.0321 | 0.0038 | 0.0602 | 0.0295 | -0.0196 | -0.0016 | 0.0614 | 0.0297 | -0.0293 | 0.0307 | -0.0436 | 0.0589 | -0.119 | -0.0408 | 0.0677 | 0.0217 | -0.0424 | 0.0171
Cc1nc(Nc2ncc(C(=O)Nc3c(C)cccc3Cl)s2)cc(N2CCN(CCO)CC2)n1 [Dasatinib] + CC(=O)Nc1cccc(-n2c(=O)n(C3CC3)c(=O)c3c(Nc4ccc(I)cc4F)n(C)c(=O)c(C)c32)c1 [Trametinib] (first compound max 2 µM, 7x7, partner max 1 µM) | 0.0037 | -0.159 | 0.179 | 0.073 | -0.0052 | -0.0057 | -0.168 | -0.0592 | -0.0973 | -0.0157 | 0.122 | -0.0634 | 0.0762 | -0.111 | -0.0992 | -0.0093 | -0.0296 | -0.0156 | 0.0522
COc1cc2ncnc(Nc3ccc(F)c(Cl)c3)c2cc1OCCCN1CCOCC1 [Gefitinib] + CC(C)n1c(=O)n(C)c2cnc3cc(F)c(-c4ccc(OCCCN5CCCCC5)nc4)cc3c21 [AZD1390] (first compound max 10 µM, 7x7, partner max 0.3 µM) | -0.0328 | -0.0756 | -0.0556 | -0.0857 | -0.0854 | -0.176 | -0.0592 | -0.0652 | -0.0407 | -0.0267 | -0.0696 | -0.0685 | -0.0431 | -0.0757 | -0.0457 | -0.0976 | -0.0252 | -0.0192 | -0.0989
CS(=O)(=O)CCNCc1ccc(-c2ccc3ncnc(Nc4ccc(OCc5cccc(F)c5)c(Cl)c4)c3c2)o1 [Lapatinib] + C[C@@H](Oc1cc(-c2cnn(C3CCNCC3)c2)cnc1N)c1c(Cl)ccc(F)c1Cl [Crizotinib] (first compound max 10 µM, 7x7, partner max 10 µM) | 0.001 | -0.0423 | 0.0122 | 0.005 | -0.0468 | -0.0511 | -0.0223 | -0.0666 | -0.0323 | -0.0207 | -0.0535 | -0.0564 | -0.0617 | 0.0087 | -0.0001 | 0.0215 | -0.106 | -0.0572 | -0.0565
CC(=O)c1c(C)c2cnc(Nc3ccc(N4CCNCC4)cn3)nc2n(C2CCCC2)c1=O [Palbociclib] + CC1(C)CCC(CN2CCN(c3ccc(C(=O)NS(=O)(=O)c4ccc(NCC5CCOCC5)c([N+](=O)[O-])c4)c(Oc4cnc5[nH]ccc5c4)c3)CC2)=C(c2ccc(Cl)cc2)C1 [Venetoclax] (first compound max 10 µM, 7x7, partner max 1 µM) | 0.0201 | -0.0312 | 0.0322 | -0.0632 | 0.0337 | 0.0032 | -0.024 | 0.0042 | -0.0363 | -0.0265 | -0.019 | -0.0608 | -0.0319 | -0.0079 | 0.0639 | -0.0214 | -0.0899 | -0.0455 | -0.0219
CC(=O)c1c(C)c2cnc(Nc3ccc(N4CCNCC4)cn3)nc2n(C2CCCC2)c1=O [Palbociclib] + Cc1c2c(nn1C)CSCc1cc(n(C)n1)CSc1cc(c3ccccc3c1)OCCCc1c(C(=O)O)n(C)c3c-2c(Cl)ccc13 [AZD5991] (first compound max 10 µM, 7x7, partner max 1 µM) | 0.0056 | -0.0972 | -0.0227 | -0.004 | -0.0188 | -0.0244 | -0.0305 | 0.0201 | -0.0488 | 0.0033 | 0.0084 | -0.0784 | -0.0522 | -0.098 | -0.0496 | 0.0082 | -0.0233 | -0.0271 | -0.0182
CC(=O)c1c(C)c2cnc(Nc3ccc(N4CCNCC4)cn3)nc2n(C2CCCC2)c1=O [Palbociclib] + Cn1cnc2c(F)c(Nc3ccc(Br)cc3Cl)c(C(=O)NOCCO)cc21 [Selumetinib] (first compound max 10 µM, 7x7, partner max 10 µM) | -0.0263 | -0.0601 | -0.102 | 0.0259 | 0.0425 | 0.0209 | -0.0278 | 0.0079 | -0.0131 | -0.021 | 0.0209 | -0.0617 | 0.0334 | 0.0092 | 0.0599 | 0.0564 | -0.013 | -0.0727 | -0.0041
C[C@@H](c1ccc2nccn2c1)n1nnc2ncc(-c3cnn(C)c3)nc21 [Savolitinib] + CC1(C)CCC(CN2CCN(c3ccc(C(=O)NS(=O)(=O)c4ccc(NCC5CCOCC5)c([N+](=O)[O-])c4)c(Oc4cnc5[nH]ccc5c4)c3)CC2)=C(c2ccc(Cl)cc2)C1 [Venetoclax] (first compound max 1 µM, 7x7, partner max 1 µM) | -0.0111 | -0.0708 | -0.0539 | -0.0452 | -0.05 | -0.055 | -0.0499 | -0.0848 | -0.0577 | -0.019 | -0.0752 | -0.067 | -0.0231 | -0.0691 | -0.0764 | -0.053 | -0.0156 | -0.0614 | -0.0324
C[C@@H](c1ccc2nccn2c1)n1nnc2ncc(-c3cnn(C)c3)nc21 [Savolitinib] + Cc1c2c(nn1C)CSCc1cc(n(C)n1)CSc1cc(c3ccccc3c1)OCCCc1c(C(=O)O)n(C)c3c-2c(Cl)ccc13 [AZD5991] (first compound max 1 µM, 7x7, partner max 1 µM) | 0.0136 | -0.0631 | -0.0124 | -0.0285 | -0.0361 | 0.0148 | -0.0365 | -0.0331 | -0.0432 | -0.0395 | -0.032 | -0.0675 | -0.0374 | -0.0271 | -0.0713 | -0.0373 | 0.0118 | -0.076 | -0.0299
Cn1cnc2c(F)c(Nc3ccc(Br)cc3Cl)c(C(=O)NOCCO)cc21 [Selumetinib] + C=CCn1c(=O)c2cnc(Nc3ccc(N4CCN(C)CC4)cc3)nc2n1-c1cccc(C(C)(C)O)n1 [AZD1775] (first compound max 10 µM, partner max 1 µM) | -0.0385 | -0.0972 | -0.0133 | -0.0049 | 0.0496 | -0.0127 | -0.0495 | -0.0543 | -0.0372 | -0.0198 | -0.0108 | -0.0704 | -0.0033 | -0.0393 | -0.0174 | 0.0338 | -0.0607 | -0.0729 | 0.0334
Cn1cnc2c(F)c(Nc3ccc(Br)cc3Cl)c(C(=O)NOCCO)cc21 [Selumetinib] + CC(C)n1c(=O)n(C)c2cnc3cc(F)c(-c4ccc(OCCCN5CCCCC5)nc4)cc3c21 [AZD1390] (first compound max 10 µM, 7x7, partner max 0.3 µM) | -0.0309 | -0.0618 | -0.0588 | -0.0193 | 0.0153 | -0.0267 | -0.0669 | -0.0587 | -0.031 | -0.0084 | -0.0276 | -0.0561 | -0.0139 | -0.0229 | 0.0063 | -0.0092 | -0.0441 | -0.0806 | -0.0215
Cn1cnc2c(F)c(Nc3ccc(Br)cc3Cl)c(C(=O)NOCCO)cc21 [Selumetinib] + CCN(CCO)CCCOc1ccc2c(Nc3cc(CC(=O)Nc4cccc(F)c4)[nH]n3)ncnc2c1 [AZD2811] (first compound max 10 µM, 7x7, partner max 1 µM) | 0.0237 | -0.106 | -0.0026 | 0.0543 | 0.0386 | -0.0816 | 0.0242 | -0.0344 | -0.0008 | -0.0037 | -0.0448 | -0.057 | -0.0144 | 0.0102 | -0.0253 | -0.0228 | 0.0685 | -0.0415 | -0.0322
Cn1cnc2c(F)c(Nc3ccc(Br)cc3Cl)c(C(=O)NOCCO)cc21 [Selumetinib] + C[C@@H]1COCCN1C2=NC(=NC(=C2)C3(CC3)[S@](=N)(=O)C)C4=C5C=CNC5=NC=C4 [AZD6738] (first compound max 10 µM, 7x7, partner max 10 µM) | 0.0012 | -0.0994 | -0.032 | -0.0129 | 0.012 | -0.0036 | 0.0359 | -0.0735 | -0.0293 | -0.0604 | -0.0137 | -0.0607 | 0.04 | -0.0297 | 0.0644 | -0.0072 | -0.0631 | -0.069 | 0.0006

Source: the supplement of paper PMC11061612
